These results are taken from ChEMBL document CHEMBL1201862, “PubChem BioAssay data set” (2004).

Among the test systems are NCI/ADR-RES; T47D; M14; HT-29; SK-MEL-2; OVCAR-5; OVCAR-8; HOP-62; EKVX; SF-539; MOLT-4; OVCAR-4; SF-295; SK-MEL-5; HOP-92; K562; SR; NCI-H460; SN12C.
Common to all, as to test: inhibition of tumour cell growth, NCI panel, 48 h

Structures are written as SMILES.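 Where inhibition never reached the appropriate level, the endpoint shown equals the highest concentration tested. Otherwise, values were interpolated linearly from a five-concentration, 48-hour dose response in 96-well plates. GI50 = concentration required for 50% inhibition of growth.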 Calls of active or inactive are those of the source. Rule as the data show it: active = GI50 up to about 1.1 µM and inactive = higher.

Consider `C=C1C[C@H](O)[C@H](Br)C(C)(C)C12CCC(C)(Cl)C(Br)C2` (some centres not stated), for which the GI50 in the assay on NCI/ADR-RES was 4.58 µM (inactive); with T47D, 0.746 µM (active); with M14, 2.36 µM (inactive); with HT-29 it was 0.141 µM (active); with SK-MEL-2, 1 µM (active); with OVCAR-5 it was 0.762 µM (active). For the same molecule, the GI50 was 1.23 µM (inactive) in the assay on OVCAR-8; 2.26 µM (inactive) in the assay on HOP-62; 0.286 µM (active) in the assay on EKVX; 15.6 µM (inactive) with SF-539; 0.451 µM (active) with MOLT-4; 0.635 µM (active) in the assay on OVCAR-4. In addition, the GI50 in the assay on SF-295 is 1.19 µM (inactive); with SK-MEL-5, 3.04 µM (inactive); with HOP-92, 1.5 µM (inactive); in the assay on K562 it was 2.44 µM (inactive); with SR, 2.19 µM (inactive); with NCI-H460, 1.69 µM (inactive). Also, the GI50 in the assay with SN12C was 4.37 µM (inactive).
In the case of `COc1ccc2cc(CN3CCC(C4CCNCC4)CC3)ccc2c1`, the GI50 with NCI/ADR-RES is 2.88 µM (inactive); in the assay on T47D, 2.33 µM (inactive); with M14 it was 2.06 µM (inactive); in the assay with HT-29, 1.3 µM (inactive); with SK-MEL-2 it was 1.91 µM (inactive); in the assay with OVCAR-5 it was 7.76 µM (inactive). Besides, the GI50 is 3.4 µM (inactive) in the assay with OVCAR-8; 2.67 µM (inactive) in the assay on HOP-62; 5.02 µM (inactive) in the assay with EKVX; 1.71 µM (inactive) with SF-539; 0.437 µM (active) in the assay with MOLT-4; 8.97 µM (inactive) in the assay with OVCAR-4. Moreover, the GI50 in the assay with SF-295 is 1.89 µM (inactive); in the assay with SK-MEL-5 it was 1.79 µM (inactive); with HOP-92, 1.79 µM (inactive); in the assay on K562, 0.959 µM (active); with SR, 2.07 µM (inactive); in the assay on NCI-H460, 1.93 µM (inactive). For the same molecule, in the assay with SN12C, the GI50 is 6.85 µM (inactive).
Take `CCOC(=O)CCc1cc(=O)oc2cc(O)cc(O)c12`: the GI50 with NCI/ADR-RES, in the assay with T47D, in the assay on M14, in the assay with HT-29, in the assay with SK-MEL-2 and with OVCAR-5 was > 100 µM (inactive) each time. For the same molecule, the GI50 in the assay with OVCAR-8 was > 100 µM (inactive); in the assay on HOP-62 it was > 100 µM (inactive); in the assay with EKVX, 62.5 µM (inactive); in the assay with SF-539 it was > 100 µM (inactive); in the assay on MOLT-4, > 100 µM (inactive); in the assay on OVCAR-4 it was > 100 µM (inactive). The GI50 in the assay on SF-295, with SK-MEL-5, in the assay with HOP-92, in the assay on K562, in the assay with SR and in the assay with NCI-H460 was > 100 µM (inactive) in each case. In the assay with SN12C, the GI50 is > 100 µM (inactive).
Turning to `COc1ccc(OC)c(-c2nc3n(c2/C=C2/C(=O)Nc4ccccc42)CCS3)c1`, the GI50 was 34.8 µM (inactive) in the assay on NCI/ADR-RES; 35.1 µM (inactive) with T47D; 37.4 µM (inactive) in the assay on M14; 47.6 µM (inactive) with HT-29; 26 µM (inactive) in the assay on SK-MEL-2; > 100 µM (inactive) in the assay with OVCAR-5. Further, the GI50 with OVCAR-8 was 68.1 µM (inactive); in the assay on HOP-62, 58.6 µM (inactive); in the assay with EKVX, > 100 µM (inactive); in the assay on SF-539, 47.9 µM (inactive); in the assay with MOLT-4, 27 µM (inactive); in the assay on OVCAR-4 it was 41.5 µM (inactive). Besides, the GI50 in the assay on SF-295 was 29.4 µM (inactive); with SK-MEL-5, 53.5 µM (inactive); in the assay with HOP-92 it was 48.6 µM (inactive); in the assay on K562 it was 37.4 µM (inactive); with SR, 32.8 µM (inactive); in the assay on NCI-H460, 35 µM (inactive). For the same molecule, the GI50 in the assay with SN12C is 65.8 µM (inactive).
On to `Cc1ccc(NC(=O)CSC(N)=O)cc1C`, for which the GI50 is > 100 µM (inactive) in the assay on NCI/ADR-RES; > 100 µM (inactive) in the assay on T47D; 40.8 µM (inactive) with M14; > 100 µM (inactive) with HT-29; > 100 µM (inactive) in the assay on SK-MEL-2; > 100 µM (inactive) in the assay on OVCAR-5. In addition, the GI50 was > 100 µM (inactive) in the assay with OVCAR-8; > 100 µM (inactive) with HOP-62; > 100 µM (inactive) in the assay with EKVX; 43.4 µM (inactive) in the assay with SF-539; 30.8 µM (inactive) in the assay with MOLT-4; > 100 µM (inactive) with OVCAR-4. Further, the GI50 in the assay on SF-295 is > 100 µM (inactive); in the assay on SK-MEL-5, > 100 µM (inactive); in the assay with HOP-92, > 100 µM (inactive); with K562 it was > 100 µM (inactive); in the assay on SR it was 34.7 µM (inactive); with NCI-H460, > 100 µM (inactive). Moreover, the GI50 with SN12C is > 100 µM (inactive).
Turning to `N#Cc1cccc(N2C(=O)C3C4C=CC(C3C2=O)C2C(=O)N(c3cccc(C#N)c3)C(=O)C42)c1` (configuration not stated), the GI50 in the assay on NCI/ADR-RES was > 100 µM (inactive); with T47D, > 31.6 µM (inactive); in the assay with M14, 59 µM (inactive); in the assay with HT-29, > 63.1 µM (inactive); with SK-MEL-2, 22.8 µM (inactive); in the assay on OVCAR-5 it was > 63.1 µM (inactive). Moreover, the GI50 is 37.8 µM (inactive) with OVCAR-8; 18.3 µM (inactive) in the assay with HOP-62; > 100 µM (inactive) in the assay on EKVX; 29.3 µM (inactive) with SF-539; 41.8 µM (inactive) with MOLT-4; > 63.1 µM (inactive) in the assay with OVCAR-4. The GI50 in the assay with SF-295 was 17.1 µM (inactive); in the assay with SK-MEL-5, > 63.1 µM (inactive); in the assay with HOP-92 it was 15.2 µM (inactive); in the assay with K562, 46.9 µM (inactive); in the assay on SR, 37.6 µM (inactive); with NCI-H460, > 63.1 µM (inactive). Besides, the GI50 in the assay on SN12C is > 39.8 µM (inactive).
As for `CC(=O)OCC1OC(n2c3c(c(-c4cccc5ccccc45)c(C#N)c2=S)CCCC3)C(OC(C)=O)C(OC(C)=O)C1OC(C)=O` (configuration not stated), the GI50 is > 100 µM (inactive) in the assay with NCI/ADR-RES; > 100 µM (inactive) in the assay on T47D; 66.7 µM (inactive) in the assay on M14; > 100 µM (inactive) in the assay on HT-29; 20.7 µM (inactive) in the assay on SK-MEL-2; > 100 µM (inactive) in the assay on OVCAR-5. The GI50 in the assay with OVCAR-8 is > 100 µM (inactive); in the assay on HOP-62 it was > 100 µM (inactive); with EKVX, 25.8 µM (inactive); with SF-539, > 100 µM (inactive); with MOLT-4, > 100 µM (inactive); in the assay on OVCAR-4, > 100 µM (inactive). Further, the GI50 in the assay with SF-295 is > 100 µM (inactive); with SK-MEL-5, > 100 µM (inactive); with HOP-92 it was 0.112 µM (active); in the assay with K562 it was > 100 µM (inactive); in the assay on SR, > 100 µM (inactive); in the assay on NCI-H460 it was > 100 µM (inactive). Moreover, the GI50 in the assay on SN12C is > 100 µM (inactive).
Turning to `Oc1cc(-c2ccc(F)cc2)nc2ncc(Cl)cc12`, the GI50 was 18 µM (inactive) in the assay on NCI/ADR-RES; 48.4 µM (inactive) in the assay on T47D; 26.9 µM (inactive) with M14; 26.5 µM (inactive) in the assay on HT-29; 26.2 µM (inactive) with SK-MEL-2; 55.3 µM (inactive) in the assay on OVCAR-5. Besides, the GI50 in the assay on OVCAR-8 is 38.5 µM (inactive); in the assay on HOP-62, 32.2 µM (inactive); with EKVX, 30.3 µM (inactive); in the assay on SF-539 it was 27.6 µM (inactive); with MOLT-4, 20.7 µM (inactive); in the assay on OVCAR-4, > 77.3 µM (inactive). Also, the GI50 with SF-295 was 18.1 µM (inactive); with SK-MEL-5 it was 6.93 µM (inactive); in the assay on HOP-92, 2.94 µM (inactive); in the assay with K562, 4.21 µM (inactive); with SR, 3.09 µM (inactive); in the assay on NCI-H460, 15.4 µM (inactive). In addition, in the assay on SN12C, the GI50 is > 84.1 µM (inactive).
